Reference: patent US20180050090A1, “COMPOSITIONS AND METHODS FOR SENSITIZING CELLS TO TRAIL-INDUCED APOPTOSIS” (THE JOHNS HOPKINS UNIVERSITY, priority 2008, published 2018)
Where two headings read alike, the source gives them in different places.

How the values were obtained:
[1] = tested on: DR5; details: HT-29 cells, DOX 24 h, qPCR
Description: (§1) Total cellular RNA was purified from HT-29 cells using Trizol reagent (Life Technology) and subjected to amplification with SuperScript One-Step RT-PCR system (Life Technology). Real-time PCR was carried out using a StepOne™ Real-Time PCR System according to the manufacturer instructions (Life Technology). The mean cycle threshold value (Ct) from triplicate samples was used to calculate the gene expression. β-actin was used as an internal control to normalize the variability in expression.

[2] = tested on: DR4; details: HT-29 cells, DOX 24 h, qPCR
Description: as §1

[3] = Survival of HT-29 xenograft mice during treatment; format: in vivo, BALB/c athymic mice; details: high dose 7 mg/kg free DOX (with TRAILPEG), HT-29 xenografts
Description: The antitumor effects of […] after HAC/DOX sensitizing were investigated in HT-29 tumor bearing mice (n=5). Briefly, freshly harvested HT-29 cells (5×10^6 cells/mouse) were inoculated s.c. into BALB/c athymic mice. Treatment was initiated when the tumors reached a mean volume of 150 mm^3. Mice were treated with three rounds of DOX or HAC/DOX (7 mg/kg, i.v.) combined with […] (8 mg/kg, i.v.) for 10 days. The tumors were analyzed and calculated as described above. (n=5).

[4] = tested on: Casp-8, Casp-3; test: Western blot of cleaved caspases in HT-29 tumors in vivo; parameters: species or system mice; details: followed by TRAILPEG, HT-29 xenografts
Excerpt: (§2) Immunoblots were visualized by an enhanced chemiluminescence method.

[5] = tested on: DR4; details: HT-29 cells, DOX 2 μg/mL
Description: (§3) Anti-caspase-8 (Cell Signaling Technology, Danvers, Mass., #9746), anti-cleaved PARP-1 (Cell Signaling Technology, #5625), anti-cleaved caspase-3 (Cell Signaling Technology, #9664), anti-cleaved caspase-9 (Cell Signaling Technology, #7237), anti-CD44 (Cell Signaling Technology, #5640), anti-p-JNK (Cell Signaling Technology, #4668), anti-p-p53 (Ser15 Cell Signaling Technology, #9284), anti-BCl-2 (Cell Signaling Technology, #2870), anti-p-BCL-2 (Cell Signaling Technology, #2875), anti-BCL-XL (Cell Signaling Technology, #2764), anti-DR4 (Abcam, Cambridge, Mass., #13890), anti-DR5 (Abcam, #47179), anti-c-Jun (Santa Cruz Biotechnology, Santa Cruz, Calif., sc-1694), or anti-β-actin (sc-47778) were used in the Western blot analysis. In generally, cells were lysed and sonicated briefly in ice-cold PBS buffer (1 mM PMSF, and 1 μg/ml each of aprotinin, leupeptin, and pepstatin A). Cell lysates were clarified by centrifugation, resolved by SDS-PAGE, and proteins on gels were transferred to nitrocellulose (Bio-Rad, Hercules, Calif.) using a semidry blotter (Bio-Rad). The membrane was blocked with 3% BSA in TBST (10 mM Tris-Cl, pH 8.0, 150 mM NaCl, 0.05% Tween-20) and incubated overnight at 4° C. with primary antibodies. Immunoblots were visualized by an enhanced chemiluminescence method.

[6] = tested on: HT-29, MDA-MB-231, A549, PC3 cells; test: Cleaved PARP-1 western blot in TRAIL-resistant tumor cell lines; format: cell-based, human; details: HT-29, MDA-MB-231, A549, PC3 (and HCT116 for the combination)
Description: as §3

[7] = tested on: HT-29 cells; test: HT-29 cell death (MTT) with DNA damaging agents, alone or with […]; format: cell-based, human; details: for apoptosis as relative cell death, low doses: 0.5 μg/mL DOX, CIS, 1 μg/mL 5-Fu, 0.6 μg/mL IRINO, 24 h pretreatment then 24 h drug alone or with TRAILPEG 1 μg/mL; for TRAIL-induced apoptosis, sub-lethal dose combined with TRAILPEG versus drug alone: DOX 2, 5-FU 10, CIS 2, IRINO 3 μg/mL
Description: A total of 1×10^4 cells were plated in 0.1 mL in 96-well flat bottom plates and incubated for 24 h before being exposed to various stimuli. After incubation for the indicated times, […] MTT solution was added to each well and incubated for 1 h. After removal of the medium, 200 μL of DMSO was added to each well to dissolve the formazan crystals. The absorbance at 540 nm was determined using a microplate reader (Bio-Tek Instruments, Inc, Winooski, Vt.). Triplicate wells were assayed for each condition.

[8] = DOX distribution in HT-29 xenograft tumors; format: in vivo, mice; details: HT-29 xenografts, single i.v. 7 mg/kg DOX-based
Description: Mice bearing HT-29 xenograft tumors were intravenously administered with DOX (7 mg/kg) and HAC/DOX (containing 7 mg/kg equivalent doxorubicin) when tumors reached 300 mm^3. At each selected time point, 3 mice in one group were euthanized by cervical dislocation. Whole blood was collected via cardiac puncture with a heparinized syringe. Tumors were dissected out and frozen at −70° C. immediately. Plasma samples were isolated from whole blood by centrifugation at 3000 g for 5 min. Tissues homogenates were prepared in 800 μL water using a Polytron homogenizer (Brinkman Instruments, Mississauga, Ontario, Canada), and then 200 μL of H2SO4 was added to the tissue homogenates. The solutions were then digested for 2 h at 60° C. After the vials cooled to room temperature, 100 μL of AgNO3 was added. Then the samples were centrifuged at 12,000 g for 10 min, and the supernatant was counted in a fluorospectrometer (RF-5301, Shimadzu) at an excitation wavelength of 500 nm and emission wavelength of 558 nm. The concentration of doxorubicin in each tissue was calculated based on a calibration curve. The calibration curve was linear over the 0.02 and 2.00 μg/mL range with a correlation coefficient of R^2=0.9993.

[9] = tested on: DR5; test: Western blot of DR5 protein in HT-29 cells; format: cell-based, human; details: DOX 2 μg/mL, regardless of TRAILPEG
Excerpt: as §2

[10] = tested on: HT-29 cells; test: Western blotting of apoptosis markers in HT-29 cells; format: cell-based, human; details: western blot
Excerpt: as §2

[11] = rodents; cited from earlier work
[12] = humans; cited from earlier work

COc1cccc2c1C(=O)c1c(O)c3c(c(O)c1C2=O)C[C@@](O)(C(=O)CO)C[C@@H]3O[C@H]1C[C@H](N)[C@H](O)[C@H](C)O1 [DOX, doxorubicin]
increase of DR5 mRNA compared to untreated cells [1]: 60% | DR4 mRNA levels [2]: did not change | mice died during the treatment cycle [3]: 60% | Casp-3 activation vs. control ([4]; high dose 7 mg/kg DOX-based): 2 fold | Casp-3 activation vs. control ([4]; low dose 2 mg/kg DOX-based): 2 fold | upregulation of DR4 expression at the protein level [5]: not DR4 | cleaved PARP-1 expression [6]: induced low levels of cleaved PARP-1 | apoptosis as relative cell death, low doses [7]: did not induce apoptosis | TRAIL-induced apoptosis, sub-lethal dose combined with TRAILPEG versus drug alone [7]: enhanced TRAIL-induced apoptosis was observed | DOX concentration in tumor over time [8]: gradually decreased with time | upregulation of DR5 expression at the protein level [9]: 3 to 4 fold | phosphorylation of p53 and activation of c-jun [10]: led to the phosphorylation of p53 and the activation of c-jun

CCc1c2c(nc3ccc(OC(=O)N4CCC(N5CCCCC5)CC4)cc13)-c1cc3c(c(=O)n1C2)COC(=O)[C@]3(O)CC [IRINO, irinotecan]
apoptosis as relative cell death, low doses [7]: did not induce apoptosis | TRAIL-induced apoptosis, sub-lethal dose combined with TRAILPEG versus drug alone [7]: enhanced TRAIL-induced apoptosis was observed

O=c1[nH]cc(F)c(=O)[nH]1 [5-FU, 5-fluorouracil]
apoptosis as relative cell death, low doses [7]: did not induce apoptosis | TRAIL-induced apoptosis, sub-lethal dose combined with TRAILPEG versus drug alone [7]: enhanced TRAIL-induced apoptosis was observed

rhTRAIL: recombinant human tumor necrosis factor (TNF)-related apoptosis inducing ligand
half-life in physiological conditions [11]: 3-5 min | half-life in physiological conditions [12]: less than 30 minutes

Oc1c2ccccc2c2c3c(cccc13)N=N2 [SP600125]
reduction of DOX and TRAILPEG-induced cell death ([7]; SP600125 20 μM pre-treatment): 35%
